The values that follow come from publication PMC5007486, “Thermodynamic instability of viral proteins is a pathogen-associated molecular pattern targeted by human defensins” (Scientific Reports, 2016).

Where no end group is shown, it is not given here.

The subject of one experiment is chemokine receptor CCR6. Also on record: method as in PMID 12840147. The note with it: binding and activation of CCR6; cited from earlier work.
The conditions of experiment [1]: cited from earlier work. The source says: (§1) Three characteristic disulfide bonds stabilize the defensins’ structure and are essential for some, but not all functions of the peptides. […] This is likely because the preserved defensin structure is required in the later case, when the cell wall synthesis machinery is targeted, but not in the former case, when defensins directly affect membranes of Gram-negative bacteria. In contrast, reduction of disulfi ...

The next experiment relates to serine protease. Also on record: method as in PMID 23171075. The note with it: greatly increased with elevated temperature; cited from earlier work.
In another experiment the test system is dengue virus DENV-2. Also on record: method as in PMID 23171075. Particulars: activity greatly increased with elevated temperature; cited from earlier work.
In experiment [2] the test system is gp41. The note with it: cited from earlier work.
Experiment [3] has as its system gp41-derived peptide mixture of N36/C34. More on the design: method as in PMID 16648135. The note with it: cited from earlier work.
Experiment [4] relates to Gram-negative and Gram-positive bacteria. The note with it: reduction of disulfide bonds; cited from earlier work.
Source text: as §1

The subject of experiment [5] is TEV Protease. It counts as binding, tobacco etch virus (TEV). The note with it: DSF. The source says: (§2) Differential scanning fluorimetry (DSF)
Experiment [6] has as its system TEV Protease. It counts as biochemical, tobacco etch virus (TEV). Particulars: disulfide bonds reduced with 10 mM TCEP, one hour pre-incubation at room temperature. As for the experimental part: TEV protease activity assay
The reactions were stopped by boiling in reducing sample buffer; proteolytic products were resolved on SDS-PAGE. For reducing condition experiments, the reaction buffer was supplemented with 10 mM tris(2-carboxyethyl)phosphine (TCEP) and the defensins were pre-incubated with 10 mM TCEP for one hour at room temperature before co-incubation with the TEV protease. Note, the ammonium salt of TCEP (Sigma #646547) used in this study has neutral pH (7.0). Care was taken to verify that the final pH of the working solutions was not changed after the addition of TCEP.

Experiment [7] has as its system TEV Protease. More on the design: species or system tobacco etch virus (TEV). The note with it: 10 μM protein; HNP-1 20 and 50 μM or RC-101 30 and 60 μM; 30 min, […] °C, pH 7.5, 100 mM NaCl; 280,000 g, SDS-PAGE.
Procedure: Precipitation of HIV-1 MA, HIV-1 CA, and TEV protease was assessed by differential ultracentrifugation. […] All samples were centrifuged using TLA-100 rotor in Optima TL-100 ultracentrifuge (Beckman Coulter) at 280,000 g for 30 min at 4 °C. The supernatant (soluble) and pellet (precipitated) fractions were collected, supplemented with 1/3rd of the volume of 4x reducing sample buffer (200 mM Tris, pH 6.8, 40% glycerol, 8% SDS, 400 mM β-mercaptoethanol, 0.4% bromophenol blue), pellets resuspended, and samples resolved on SDS-PAGE.
For another experiment, the system named is HIV-1 MA. The note with it: 10 μM MA, 3-fold molar excess HNP-1, chymotrypsin (1:100 w/w) or thermolysin (1:200 w/w), 37 °C, 20 mM HEPES pH 7.5, 100 mM NaCl, 5 mM CaCl2, SDS-PAGE.
Another experiment relates to HSV. More on the design: method as in PMID 17142766. Particulars: cited from earlier work.
For experiment [8], the system named is PFV IN. More on the design: species or system prototype foamy virus (PFV). Particulars: 5 μM PFV IN, 3-fold molar excess HNP-1, chymotrypsin (1:100 w/w) or thermolysin (1:200 w/w), 37 °C, 20 mM HEPES pH 7.5, 100 mM NaCl, 5 mM CaCl2, SDS-PAGE. As to the method: Limited proteolysis was conducted as described previously. […] The protein samples were resolved on SDS-PAGE.

Experiment [9] deals with gp41. Particulars: cited from earlier work. The source holds these as a separate data set.
For experiment [10], the system named is HIV-1 CA. Particulars: 10 μM CA, 3-fold molar excess HNP-1, chymotrypsin (1:100 w/w) or thermolysin (1:200 w/w), 37 °C, 20 mM HEPES pH 7.5, 100 mM NaCl, 5 mM CaCl2, SDS-PAGE.
Procedure: (§3) Briefly, viral proteins (5–10 μM) were mixed with 3-fold molar excess of HNP-1 (i.e. 15–30 μM) in a 20 mM HEPES buffer (pH 7.5) supplemented with 100 mM NaCl and 5 mM CaCl2. […] The reactions were stopped by adding reducing sample buffer (50 mM Tris, pH 6.8, 10% glycerol, 2% sodium dodecyl sulfate (SDS), 100 mM β-mercaptoethanol, 0.1% bromophenol blue) supplemented with 2 mM phenylmethylsulfonyl fluoride (PMSF) and 10 mM ethylenediaminetetraacetic acid (EDTA) and boiling for 5 min. The protein samples were resolved on SDS-PAGE.
Another experiment deals with HIV-1. The note with it: cited from earlier work.
Experiment [11] relates to HIV-1 IN. Particulars: HTRF; IN 400 nM; defensin 1–10 μM, 30 min room temperature; strand transfer three hours 37 °C, pH 7.5.
Procedure: Homogenous time-resolved fluorescence (HTRF)-based integration activity assay
To test the HIV-1 integrase (IN) activity in the presence and absence of defensins, previously developed HTRF technique[41][42] was used with some modifications. […] Following the incubation with the defensins, a 5′-Cy5-labelled 21-mer viral donor DNA (200 nM) and 3′-biotinylated target DNA (20 nM) were added to the reaction. […] 0.5 M NaCl (final concentration in the development solution) allows dissociating of all DNA from IN to prevent FRET signal from non-covalently associated donor and target DNA. Following an overnight incubation at 4 °C, the HTRF signal was recorded with an EnSpire multimode plate reader (PerkinElmer).
In experiment [12] the test system is HIV-1 CA. Particulars: DSF, 5-fold molar excess of cyclotide. A general note: In DSF a fluorescence change marks the thermal transition of the protein.
Procedure: (§4) Viral protein samples (5–20 μM) in a 20 mM 4-(2-hydroxyethyl)-1-piperazineethanesulfonic acid (HEPES) buffer (pH 7.5) supplemented with 150 mM NaCl and 1x SYPRO Orange dye (Invitrogen) were subjected to temperature denaturation in the absence or presence of defensins. […] Temperature melting profiles were acquired with a CFX96 Touch Real-Time PCR Detection System (Bio-Rad). Melting temperatures for proteins alone and in the presence of different defensins were calculated as described previously[76].
For experiment [13], the system named is PFV IN. It counts as binding, prototype foamy virus (PFV). The note with it: DSF, 5-fold molar excess of cyclotide.
Source text: as §2

Experiment [14] has as its system Actin Crosslinking Domain (ACD). It counts as binding, Vibrio cholerae. The note with it: 5-molar excess of peptide to the toxin.
In experiment [15] the test system is HIV-1 IN. Particulars: DSF, 5-fold molar excess of cyclotide.
Procedure: as §4
For a further experiment, the system named is HIV-1 Gag-Δp6. Particulars: DSF, 5-fold molar excess of cyclotide.
The next experiment has as its system Ad5.F35 capsid. Particulars: CryoEM; with signs of local disorganization of hexon, penton base, fiber; cited from earlier work. From the text:
It is likely that the potent destabilizing effects imposed by defensins are pertinent at numerous physiological occasions and particularly upon dynamic structural transitions in the course of capsid assembly, uncoating, and membrane fusion. Yet, we are far from proposing that the destabilization of purified viral proteins by defensins observed in vitro accurately represents the complexity of physiological conditions including, but not limited to, interactions of viral proteins with each other, viral nucleic acids, and host proteins. Thus, in apparent contradiction with our resu ...

Procedure for HIV-1 Gag-Δp6: as §4
Procedure for HIV-1 MA: as §3

On to “hBD-3: human beta-defensin 3 (GIINTLQKYYCRVRGGRCAVLSCLPKEEQIGKCSTRGRKCCRRKK; ends and bridges not checked; cysteine pairing not given here; UniProt P81534 23-67, looked up)”, for which, in the experiment with chemokine receptor CCR6, the “Need of disulfide bonds for chemotactic activity” value is reported as “required for its chemotactic activity”. Further, the “Need of disulfide bonds for antimicrobial activity” value in experiment [1] is recorded as “dispensable for its antimicrobial activity”.

As to retrocyclin-1 [RC-1], in the experiment with serine protease, the “DENV-2 serine protease activity” value is “interfering with the activity of its serine protease”. In the experiment with dengue virus DENV-2, the “Dengue virus DENV-2 replication” value is on record as “inhibits dengue virus DENV-2 replication”. The “Refolding of gp41 into 6-helix bundle” value in the experiment with gp41 [2] was “impaired refolding of gp41 into the 6-helix bundle structure triggering their aggregation”. For the same molecule, the “Circular dichroism spectrum of N36/C34” value in experiment [3] was “transformed into a random coil-like spectrum”.

For “hBD-1: human β-defensin hBD-1, prepared by solid-phase peptide synthesis (DHYNCVSSGGQCLYSACPIFTKIQGTCYRGKAKCCK; ends and bridges not checked; cysteine pairing not given here; UniProt P60022 33-68, looked up)”, in experiment [4], the “Effect of disulfide reduction on antimicrobial activity” value is “activates hBD-1 antimicrobial activity against both Gram-negative and Gram-positive bacteria”. Besides, the “Effect on thermal melting of TEV protease, reducing conditions” value in the experiment on TEV Protease [5] (reduced β-defensin, 10 mM TCEP) is “had no effect on thermal melting”.

With “HNP-1: human neutrophil α-defensin peptide HNP-1, prepared by solid-phase peptide synthesis”, in the experiment with TEV Protease [6], the “Ability to inhibit proteolytic activity of TEV protease, reducing conditions” value is on record as “complete loss”. For the same molecule, the “Precipitation of TEV protease” value in the experiment with TEV Protease [7] is on record as “dose-dependent precipitation”. In the experiment on HIV-1 MA, the “Detectable amounts of cleaved products of HIV-1 MA” value was “drastic reduction in the detectable amounts of cleaved products”. In addition, the HSV infection result in the experiment on HSV is “inhibit HIV-1 and HSV infections at multiple steps”. Moreover, in the experiment on PFV IN [8], the “Detectable amounts of cleaved products of PFV IN” value is listed as “drastic reduction in the detectable amounts of cleaved products”. In addition, the “Refolding lifetime of gp41 intermediates in pre-hairpin conformation” value with gp41 [9] was “prolong refolding lifetime of gp41 intermediates in pre-hairpin conformation”. Besides, the “Refolding of gp41 into 6-helix bundle” value in the experiment on gp41 [2] is listed as “impaired refolding of gp41 into the 6-helix bundle structure triggering their aggregation”. Also, in the experiment on HIV-1 CA [10], the “Detectable amounts of cleaved products of HIV-1 CA” value is recorded as “drastic reduction in the detectable amounts of cleaved products”. In addition, the HIV-1 infection result in the experiment on HIV-1 is “inhibit HIV-1 and HSV infections at multiple steps”. Besides, the “Ability to promote unfolding of TEV protease, reducing conditions” value in the experiment on TEV Protease [5] (disulfide bonds reduced with 10 mM TCEP) is “complete loss”. In the experiment on HIV-1 IN [11], the “Strand transfer activity of HIV-1 IN” value is listed as “inhibited the strand transfer activity of IN”.

As to kalata B1 [kB1], the “Ability to potentiate unfolding of HIV-1 CA” value with HIV-1 CA [12] was “none of the four cyclotides used in this study (cyO2, cyO19, kB1, and kB7) demonstrated an ability to potentiate unfolding”. Moreover, the “Ability to potentiate unfolding of PFV IN” value in the experiment on PFV IN [13] is “none of the four cyclotides used in this study (cyO2, cyO19, kB1, and kB7) demonstrated an ability to potentiate unfolding”. For the same molecule, the “Unfolding / DSF thermal denaturation profile of ACD toxin” value in [14] was “none of the four cyclotides used in this study (cyO2, cyO19, kB1, and kB7) demonstrated an ability to potentiate unfolding”. Besides, the “Ability to potentiate unfolding of HIV-1 IN” value in the experiment with HIV-1 IN [15] was “none of the four cyclotides used in this study (cyO2, cyO19, kB1, and kB7) demonstrated an ability to potentiate unfolding”. Moreover, the “Ability to potentiate unfolding of TEV protease” value in the experiment on TEV Protease [5] (5-fold molar excess of cyclotide) is “none of the four cyclotides used in this study (cyO2, cyO19, kB1, and kB7) demonstrated an ability to potentiate unfolding”. Also, the “Ability to potentiate unfolding of HIV-1 Gag-Δp6” value in the experiment on HIV-1 Gag-Δp6 was “none of the four cyclotides used in this study (cyO2, cyO19, kB1, and kB7) demonstrated an ability to potentiate unfolding”.

B1: HD-5: human enteric α-defensin HD-5, prepared by solid-phase peptide synthesis (peptide, UniProt Q01523 20-94, looked up)
Defensin alpha 5: ESLQERADEATTQKQSGEDNQDLAISFAGNGLSALRTSGSQARATCYCRTGRCATRESLSGVCEISGRLYRLCCR
modifications: Defensin-5
notes: human enteric α-defensin HD-5, prepared by solid-phase peptide synthesis
For the molecule B1, the “Stability of Ad5.F35 capsid” value with Ad5.F35 capsid was “overall stabilization of Ad5.F35 capsid”.
